Experimental data published in paper PMC7551256, “Biochemical Characterization of a Novel Endo-1,3-β-Glucanase from the Scallop Chlamys farreri” (Marine Drugs, 2020).

Key:
Lcf [1] = biological target: T1, Lcf (Azumapecten farreri, UniProt A0A140H631); assay: TLC of hydrolysis products; ESI-MS; assay type: biochemical; conditions: 0.1% (w/w) substrate, 50 mM sodium acetate pH 5.6, 37 °C; hydrolysed, also glycosyl donor
T1 construct: full length without signal peptide; secreted from Brevibacillus (pNCMO2, BamHI/XhoI); about 37 kDa; primers encode AGFRDDF at N-terminus and DYIEMIPH-stop at C-terminus
T1 sequence (A0A140H631 16-340): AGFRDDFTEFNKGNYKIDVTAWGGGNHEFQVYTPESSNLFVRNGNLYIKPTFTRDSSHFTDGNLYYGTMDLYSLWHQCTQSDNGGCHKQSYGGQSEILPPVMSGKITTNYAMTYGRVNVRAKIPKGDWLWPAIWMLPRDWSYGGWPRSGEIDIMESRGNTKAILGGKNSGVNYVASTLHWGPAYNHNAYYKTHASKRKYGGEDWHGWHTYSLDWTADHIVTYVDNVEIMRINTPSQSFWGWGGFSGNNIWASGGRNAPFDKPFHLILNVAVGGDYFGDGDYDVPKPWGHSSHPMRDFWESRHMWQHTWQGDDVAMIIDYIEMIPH

Lcf [2] = biological target: T1, Lcf; assay: ESI-MS of transglycosylation products; assay type: biochemical; conditions: glycosyl acceptor 2 mg/mL; donor laminarihexaose 2 mg/mL; 25 mM sodium acetate pH 5.6, 37 °C, 5 min

How did the “TLC of hydrolysis products; ESI-MS” value (Lcf [1]) turn out when `OC[C@H]1O[C@@H](O[C@@H]2[C@@H](O)[C@H](O[C@@H]3[C@@H](O)[C@H](O[C@@H]4[C@@H](O)[C@H](O[C@@H]5[C@@H](O)[C@H](O[C@H]6[C@H](O)[C@@H](CO)OC(O)[C@@H]6O)O[C@H](CO)[C@H]5O)O[C@H](CO)[C@H]4O)O[C@H](CO)[C@H]3O)O[C@H](CO)[C@H]2O)[C@H](O)[C@@H](O)[C@@H]1O` (some centres unmarked) [laminarihexaose] was run?
The value was “Lcf showed a more efficient cleavage rate toward laminarinexaose”.

`OC[C@@H](O)[C@@H](O)[C@H](O)[C@@H](O)CO` [D-sorbitol] was tested. Which “ESI-MS of transglycosylation products” value (Lcf [2]) did it give?
Its value is “three transglycosylation products were observed in the presence of D-sorbitol”.
